In one assay the target is T1, TLR7 (Homo sapiens, UniProt Q9NYK1).
T1 construct: human HEK-Blue cells co-expressing a TLR7 or TLR8 gene
T1 sequence (Q9NYK1 27-1049): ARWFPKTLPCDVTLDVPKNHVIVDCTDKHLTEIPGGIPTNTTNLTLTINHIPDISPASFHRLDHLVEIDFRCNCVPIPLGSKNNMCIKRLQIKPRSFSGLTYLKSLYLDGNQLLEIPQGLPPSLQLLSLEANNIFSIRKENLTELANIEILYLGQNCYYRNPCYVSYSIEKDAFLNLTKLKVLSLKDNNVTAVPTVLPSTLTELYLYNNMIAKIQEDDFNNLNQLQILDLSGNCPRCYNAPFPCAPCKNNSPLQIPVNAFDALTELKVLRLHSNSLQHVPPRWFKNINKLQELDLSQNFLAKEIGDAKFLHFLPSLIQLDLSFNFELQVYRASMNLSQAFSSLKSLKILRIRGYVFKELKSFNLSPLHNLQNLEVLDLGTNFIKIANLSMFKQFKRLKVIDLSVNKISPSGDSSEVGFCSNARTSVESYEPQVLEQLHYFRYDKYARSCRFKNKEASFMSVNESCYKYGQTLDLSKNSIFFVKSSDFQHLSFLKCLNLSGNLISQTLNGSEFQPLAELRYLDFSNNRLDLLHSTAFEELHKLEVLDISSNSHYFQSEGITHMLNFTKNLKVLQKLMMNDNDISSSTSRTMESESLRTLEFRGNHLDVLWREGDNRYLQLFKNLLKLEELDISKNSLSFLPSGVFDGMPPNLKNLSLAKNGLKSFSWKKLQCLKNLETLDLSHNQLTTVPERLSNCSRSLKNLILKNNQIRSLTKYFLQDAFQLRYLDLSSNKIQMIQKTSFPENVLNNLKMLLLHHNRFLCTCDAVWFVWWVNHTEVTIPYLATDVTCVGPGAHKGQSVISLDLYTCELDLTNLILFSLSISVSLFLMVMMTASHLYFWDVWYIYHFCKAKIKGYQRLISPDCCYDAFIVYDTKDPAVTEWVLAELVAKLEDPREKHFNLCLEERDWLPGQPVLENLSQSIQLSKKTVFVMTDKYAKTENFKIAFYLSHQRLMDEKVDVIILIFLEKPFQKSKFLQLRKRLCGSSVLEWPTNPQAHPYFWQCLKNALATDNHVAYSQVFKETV
Kind of assay: In vitro human TLR7 binding reporter assay (HEK-Blue, NF-kB/AP1-inducible SEAP). The format is cell-based. The settings on record: read-out: TLR7 Agonist EC50. In outline: (§1)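 Cells are seeded and grown for 24 h. Compounds or DMSO are then added and incubated 18 h at 37 °C. Quanti-Blue is added, and SEAP is read after thirty minutes. EC50 values are normalized, with RLU from 50 μM reference standard setting 100% Ymax.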

The next assay has as its system THP-1 cells. Kind of assay: Measurement of IL-1β production, hTRF protocol (second alternative procedure), THP-1 cells. In kind it is cell-based, human. The settings on record: read-out: NLRP3 hILIB EC50. An outline of the steps:
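THP-1 cells differentiated overnight with 50 ng/ml PMA, then plated at 50,000 cells/well in RPMI with 2% FBS onto serial compound dilutions (top final concentration 10 μM) for 2 hours at 37° C. Supernatant IL-1β measured by hTRF (antibodies at 1:40, overnight at 4° C), read at 665/615 nm against a standard curve.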

The target of a further assay is T2, TLR8 (Homo sapiens, UniProt Q9NR97).
T2 construct: human HEK-Blue cells co-expressing a TLR7 or TLR8 gene
T2 sequence (Q9NR97 27-1041): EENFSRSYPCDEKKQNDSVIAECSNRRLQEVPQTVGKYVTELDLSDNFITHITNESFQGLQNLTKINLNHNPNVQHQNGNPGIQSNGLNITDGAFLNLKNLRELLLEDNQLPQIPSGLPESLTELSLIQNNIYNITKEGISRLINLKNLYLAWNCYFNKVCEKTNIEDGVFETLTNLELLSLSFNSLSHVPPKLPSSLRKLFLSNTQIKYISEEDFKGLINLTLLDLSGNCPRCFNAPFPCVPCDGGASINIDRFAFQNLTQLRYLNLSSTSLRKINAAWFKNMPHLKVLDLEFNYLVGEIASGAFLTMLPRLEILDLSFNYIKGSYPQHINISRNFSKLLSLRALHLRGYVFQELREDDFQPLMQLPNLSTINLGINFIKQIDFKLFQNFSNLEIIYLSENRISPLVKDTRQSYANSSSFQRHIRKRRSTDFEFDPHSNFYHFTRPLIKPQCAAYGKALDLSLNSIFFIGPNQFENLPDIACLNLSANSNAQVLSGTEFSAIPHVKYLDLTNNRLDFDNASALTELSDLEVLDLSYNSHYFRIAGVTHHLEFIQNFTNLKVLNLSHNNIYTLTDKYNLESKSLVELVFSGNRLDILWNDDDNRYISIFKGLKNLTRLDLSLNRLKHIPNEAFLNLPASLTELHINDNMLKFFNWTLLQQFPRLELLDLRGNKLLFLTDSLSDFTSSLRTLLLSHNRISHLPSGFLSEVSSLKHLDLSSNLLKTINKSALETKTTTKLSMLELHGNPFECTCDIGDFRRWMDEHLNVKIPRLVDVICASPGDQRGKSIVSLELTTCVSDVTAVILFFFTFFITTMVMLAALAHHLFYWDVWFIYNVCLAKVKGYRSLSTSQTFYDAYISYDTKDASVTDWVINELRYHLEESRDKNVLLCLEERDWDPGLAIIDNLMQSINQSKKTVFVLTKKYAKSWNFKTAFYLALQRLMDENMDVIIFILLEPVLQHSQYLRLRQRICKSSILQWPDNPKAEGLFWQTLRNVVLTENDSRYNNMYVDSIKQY
Kind of assay: In vitro human TLR8 binding reporter assay (HEK-Blue, NF-kB/AP1-inducible SEAP). The conditions noted are these: read-out: TLR8 Agonist EC50. In kind it is cell-based. An outline of the steps:
as §1

The mark [1] stands for this setting: Homo sapiens, THP-1, IL-1β production, human.
Setting [2] is: Homo sapiens, THP-1, IL-1β production, human cells.

Each structure is given as a SMILES string. Structures can show the parent of a compound that is named as a salt. Where two headings read alike, the source gives them in different places.

Consider `CO[C@@H](CO)Cn1cc2c(N)nc3cc(-c4cc[nH]n4)ccc3c2n1` [Example 289, (2R)-3-[4-amino-7-(1H-pyrazol-3-yl)-2H-pyrazolo[4,3-c]quinolin-2-yl]-2-methoxypropan-1-ol, HCl], for which the EC50 is 1 to 20 µM on TLR7 (activity range class); 0.28 µM in the assay with THP-1 cells (IL-1β production, human); > 100 µM on TLR8 (activity range class).
In the case of `CN1CCOC(C(=O)NCCn2cc3c(n2)c(N)nc2cc(-c4cc[nH]n4)ccc23)C1` (single isomer, unassigned) [Example 179], the half-maximal effective concentration (EC50) on TLR7 (activity range class) is > 100 µM; in the assay with THP-1 cells (setting [1]), 25.8 µM; on TLR8 (activity range class) it was > 100 µM.
Turning to `Cc1nc(C(=O)NCCn2cc3c(n2)c(N)nc2cc(-c4cc[nH]n4)ccc23)cs1` [Example 43], the EC50 at TLR7 (activity range class) is > 100 µM; in the assay on THP-1 cells (setting [1]), 0.46 µM; on TLR8 (activity range class) it was > 100 µM.
Take `CS(=O)(=O)NCCn1cc2c(n1)c(N)nc1cc(-c3cc[nH]n3)ccc12` [Example 113, N-{2-[4-amino-7-(1H-pyrazol-3-yl)-2H-pyrazolo[3,4-c]quinolin-2-yl]ethyl}methanesulfonamide]: the EC50 on TLR7 (activity range class) was 20 to 100 µM; in the assay on THP-1 cells (setting [1]), 3.83 µM; on TLR8 (activity range class), > 100 µM.
`Nc1nc2cc(-c3cc[nH]n3)ccc2c2nn(C3COCC3O)cc12` (single isomer, unassigned) [Example 325]: the EC50 was > 100 µM on TLR7 (activity range class); 1.49 µM in the assay on THP-1 cells (IL-1β production, human); > 100 µM at TLR8 (activity range class).
Take `Nc1nc2cc(-c3cc[nH]n3)ccc2c2[nH]c(CN3CC4(CCOC4)C3)cc12` [Example 492]: the EC50 was > 100 µM on TLR7 (activity range), 0.76 µM in the assay with THP-1 cells (setting [2]) and > 100 µM at TLR8 (activity range).
Regarding `Nc1nc2cc(-c3cc[nH]n3)ccc2c2cn(CCNC(=O)c3cccc(Cl)n3)nc12` [Example 60], the figures for the EC50 at TLR7 (activity range class), in the assay on THP-1 cells (setting [1]) and at TLR8 (activity range class) were > 100 µM, 0.27 µM and > 100 µM, respectively.
As to `Nc1nc2cc(-c3cc[nH]n3)ccc2c2cn(CCCOc3ccccn3)nc12` [Example 3, 7-(1H-pyrazol-3-yl)-2-[3-(pyridin-2-yloxy)propyl]-2H-pyrazolo[3,4-c]quinolin-4-amine], the EC50 at TLR7 (activity range class) is > 100 µM; in the assay with THP-1 cells (setting [1]), 0.56 µM; at TLR8 (activity range class), > 100 µM.
Take `Nc1nc2cc(-c3cc[nH]n3)ccc2c2nn(CCCO)cc12` [Example 215]: the EC50 was > 100 µM on TLR7 (activity range class), 0.4 µM in the assay with THP-1 cells (setting [1]) and > 100 µM at TLR8 (activity range class).
With `Nc1nc2cc(-c3cc[nH]n3)ccc2c2nn(CCCCO)cc12` [Example 351], the EC50 was > 100 µM on TLR7 (activity range class), 0.64 µM with THP-1 cells (setting [1]) and > 100 µM at TLR8 (activity range class).
On to `Nc1nc2cc(-c3cc[nH]n3)ccc2c2cn(CC(=O)N3CCCC3)nc12` [Example 528], for which the EC50 at TLR7 (activity range) is > 100 µM; with THP-1 cells (setting [2]), 0.51 µM; on TLR8 (activity range), > 100 µM.
Turning to `CC(C)NC(=O)CCn1cc2c(N)nc3cc(-c4cc[nH]n4)ccc3c2n1` [Example 510], the EC50 is > 100 µM at TLR7 (activity range), 2.47 µM with THP-1 cells (setting [2]) and > 100 µM at TLR8 (activity range).
Regarding `NC(=O)Cn1cc2c(n1)c(N)nc1cc(-c3ccn[nH]3)ccc12` [Example 191], the concentration for a half-maximal effect (EC50) at TLR7 (activity range class) is > 100 µM; in the assay with THP-1 cells (setting [1]), 7.19 µM; at TLR8 (activity range class), > 100 µM.
`C[C@@H](Cn1cc2c(n1)c(N)nc1cc(-c3cc[nH]n3)ccc12)NS(C)(=O)=O` [Example 531]: the EC50 is > 100 µM on TLR7 (activity range), 1.68 µM in the assay with THP-1 cells (setting [2]) and > 100 µM on TLR8 (activity range).
Regarding `CC(=O)NCCn1cc2c(N)nc3cc(-c4cc[nH]n4)ccc3c2n1` [Example 290], the EC50 is > 100 µM at TLR7 (activity range class), 0.87 µM in the assay with THP-1 cells (setting [1]) and > 100 µM on TLR8 (activity range class).
Consider `COC1CCCN(CCn2cc3c(N)nc4cc(-c5ccn[nH]5)ccc4c3n2)C1` (stereo not drawn) [Example 265], for which the EC50 at TLR7 (activity range class) was > 100 µM; in the assay with THP-1 cells (setting [1]), 2.47 µM; at TLR8 (activity range class), > 100 µM.
For `CC(CC(=O)NCCCO)n1cc2c(N)nc3cc(-c4cc[nH]n4)ccc3c2n1` (stereo not drawn) [Example 619], the results for the EC50 at TLR7 (activity range), with THP-1 cells (setting [2]) and at TLR8 (activity range) were > 100 µM, 19.7 µM and > 100 µM, respectively.
In the case of `Nc1nc2cc(-c3cc[nH]n3)ccc2c2c1cnn2CCc1ccccn1` [Example 227], the EC50 on TLR7 (activity range class) is > 100 µM; in the assay on THP-1 cells (setting [1]), 1.81 µM; on TLR8 (activity range class), > 100 µM.
Regarding `CC(N)Cn1cc2c(N)nc3cc(-c4ccn[nH]4)ccc3c2n1` (stereo not drawn) [Example 257], the EC50 on TLR7 (activity range class) is > 100 µM; in the assay on THP-1 cells (setting [1]), 0.86 µM; at TLR8 (activity range class) it was > 100 µM.
`CC(CC(=O)N(C)C)n1cc2c(N)nc3cc(-c4cc[nH]n4)ccc3c2n1` (stereo not drawn) [Example 617]: the EC50 at TLR7 (activity range) is > 100 µM; with THP-1 cells (setting [2]), 3.88 µM; at TLR8 (activity range), > 100 µM.
Regarding `CC1(O)CCCC1n1cc2c(N)nc3cc(-c4cc[nH]n4)ccc3c2n1` (single isomer, unassigned) [Example 344], the EC50 at TLR7 (activity range class) was > 100 µM; in the assay with THP-1 cells (setting [1]), 1.02 µM; at TLR8 (activity range class) it was > 100 µM.
Turning to `COCCn1cc2c(N)nc3cc(-c4ccn[nH]4)ccc3c2c1` [Example 456], the concentration giving a half-maximal response (EC50) on TLR7 (activity range) is > 100 µM; with THP-1 cells (setting [2]), 0.23 µM; at TLR8 (activity range), > 100 µM.
In the case of `Nc1nc2cc(-c3cc[nH]n3)ccc2c2nn(CCC(F)F)cc12` [Example 354], the EC50 at TLR7 (activity range class) was > 100 µM; with THP-1 cells (setting [1]) it was 0.3 µM; on TLR8 (activity range class), > 100 µM.
As to `CC(CO)n1cc2c(n1)c(N)nc1cc(-c3ccn[nH]3)ccc12` (stereo not drawn) [Example 453], the results for the concentration giving a half-maximal response (EC50) at TLR7 (activity range), in the assay with THP-1 cells (setting [2]) and on TLR8 (activity range) were > 100 µM, 0.31 µM and > 100 µM, respectively.
Turning to `CCN(CC)CCCc1nc2c(N)nc3cc(-c4ccn[nH]4)ccc3c2s1` [Example 144, 2-[3-(diethylamino)propyl]-7-(1H-pyrazol-5-yl)-[1,3]thiazolo[4,5-c]quinolin-4-amine], the figures for the EC50 on TLR7 (activity range class), with THP-1 cells (setting [1]) and at TLR8 (activity range class) were > 100 µM, 0.66 µM and > 100 µM, respectively.
For the molecule `Nc1nc2cc(-c3cc[nH]n3)ccc2c2nn(C3CCCCC3O)cc12` (single isomer, unassigned) [Example 319], the EC50 on TLR7 (activity range class) was > 100 µM; in the assay on THP-1 cells (IL-1β production, human), 1.13 µM; at TLR8 (activity range class) it was > 100 µM.

The record behind these values is patent US12037344B2, “NLRP3 modulators” (INNATE TUMOR IMMUNITY, INC., priority 2018, dated 2024).
